In PubChem BioAssay (NCI):
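Compound exposure: 48 hours, 5 concentrations, 96-well plates. Definition used: TGI = concentration required for complete inhibition of growth.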

Assays:
Experiment in all cases: NCI anticancer screen, dose series, 48 h
MOLT-4 leukemia = tested on: MOLT-4 leukemia
COLO 205 colon = tested on: COLO 205 colon
KM12 colon = tested on: KM12 colon
RPMI-8226 leukemia = tested on: RPMI-8226 leukemia
NCI-H522 lung = tested on: NCI-H522 lung
SN12C renal = tested on: SN12C renal
A498 renal = tested on: A498 renal
XF 498 CNS = tested on: XF 498 CNS
KM20L2 colon = tested on: KM20L2 colon
OVCAR-5 ovarian = tested on: OVCAR-5 ovarian
U251 CNS = tested on: U251 CNS
M19-MEL melanoma = tested on: M19-MEL melanoma
SNB-75 CNS = tested on: SNB-75 CNS
MALME-3M melanoma = tested on: MALME-3M melanoma
SR leukemia = tested on: SR leukemia
HOP-92 NSCLC = tested on: HOP-92 NSCLC
HT29 colon = tested on: HT29 colon
NCI-H226 lung = tested on: NCI-H226 lung
UO-31 renal = tested on: UO-31 renal
OVCAR-8 ovarian = tested on: OVCAR-8 ovarian
OVCAR-3 ovarian = tested on: OVCAR-3 ovarian
SF-268 CNS = tested on: SF-268 CNS
NCI-H460 lung = tested on: NCI-H460 lung
LOX IMVI melanoma = tested on: LOX IMVI melanoma
HCT-15 colon = tested on: HCT-15 colon
LXFL 529 NSCLC = tested on: LXFL 529 NSCLC
UACC-257 melanoma = tested on: UACC-257 melanoma
SF-295 CNS = tested on: SF-295 CNS
M14 melanoma = tested on: M14 melanoma
SNB-78 CNS = tested on: SNB-78 CNS
ACHN renal = tested on: ACHN renal
CAKI-1 renal = tested on: CAKI-1 renal
TK-10 renal = tested on: TK-10 renal
DLD-1 colon = tested on: DLD-1 colon
SNB-19 CNS = tested on: SNB-19 CNS
A549 NSCLC = tested on: A549 NSCLC
RXF 393 renal = tested on: RXF 393 renal
NCI-H23 lung = tested on: NCI-H23 lung
EKVX NSCLC = tested on: EKVX NSCLC
HL-60(TB) leukemia = tested on: HL-60(TB) leukemia
HOP-18 NSCLC = tested on: HOP-18 NSCLC
HCT-116 colon = tested on: HCT-116 colon
UACC-62 melanoma = tested on: UACC-62 melanoma
OVCAR-4 ovarian = tested on: OVCAR-4 ovarian
IGROV1 ovarian = tested on: IGROV1 ovarian
K-562 leukemia = tested on: K-562 leukemia
SK-OV-3 ovarian = tested on: SK-OV-3 ovarian
CCRF-CEM leukemia = tested on: CCRF-CEM leukemia
HCC-2998 colon = tested on: HCC-2998 colon
786-0 renal = tested on: 786-0 renal
DMS 114 small cell lung = tested on: DMS 114 small cell lung
HOP-62 NSCLC = tested on: HOP-62 NSCLC
SW-620 colon = tested on: SW-620 colon

Measured: TGI

COC(=O)C(=O)C(C(=O)C(=O)Nc1ccc(OC)cc1[N+](=O)[O-])c1nc2ccc([N+](=O)[O-])cc2[nH]c1=O (stereo not drawn)
> 100 µM: all assays above
